The record followed here is US20240270809A1, “ORAL GLP RECEPTOR AGONISTS” (priority 2020, published 2024).

Each structure is given as a SMILES string. Positions of bridges follow the written chain, without caps; N, C: chain ends. Non-standard residues stand in square brackets, D forms with d. Residues, ends and D or L forms follow the SMILES beside them. *: point of attachment. Malonyl(2,2-Me2,histaminyl) = CC(C)(C(=O)NCCc1cnc[nH]1)C(=O)*; Ala(1H-tetrazol-5-yl) = N[C@@H](Cc1nnn[nH]1)C(=O)O; αMePhe(2-F) = C[C@](N)(Cc1ccccc1F)C(=O)O; d(αMeF) = C[C@@](N)(Cc1ccccc1)C(=O)O; αMeL = CC(C)C[C@](C)(N)C(=O)O; Nle = CCCC[C@H](N)C(=O)O; Aib = CC(C)(N)C(=O)O

The nature of series [1]: Stability of peptides in rat intestinal fluid (ratIF). The note with it: Sprague Dawley, undiluted rat small intestinal fluid (ratIF).
Another series has as its target T1, human GLP1 receptor (Homo sapiens, UniProt P43220).
T1 construct: expressed in transfected cells; host or cells: HEK cells, BacMam virus transduction
As to the kind of experiment: cAMP accumulation assay, functional agonism of human GLP1 receptor. Type of series: cell-based. The note with it: HEK cells infected with human GLP1 receptor BacMam virus, HTRF cAMP; for Emax: HEK293, read-out: Human GLP-1R agonist cAMP Emax; for EC50: read-out: Human GLP-1R agonist cAMP pEC50 (converted). In outline: (§1)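 cAMP read by HTRF detection reagents in lysis buffer following 45 min agonist exposure at 37 °C. Cells: frozen HEK transduced for 24 h with GLP1 or GLP2 receptor BacMam, suspended in HBSS plus 0.5 mM IBMX.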

The next series deals with T2, human GLP2 receptor (Homo sapiens, UniProt O95838).
T2 construct: expressed in transfected cells; host or cells: HEK cells, BacMam virus transduction
T2 sequence (O95838 1-553): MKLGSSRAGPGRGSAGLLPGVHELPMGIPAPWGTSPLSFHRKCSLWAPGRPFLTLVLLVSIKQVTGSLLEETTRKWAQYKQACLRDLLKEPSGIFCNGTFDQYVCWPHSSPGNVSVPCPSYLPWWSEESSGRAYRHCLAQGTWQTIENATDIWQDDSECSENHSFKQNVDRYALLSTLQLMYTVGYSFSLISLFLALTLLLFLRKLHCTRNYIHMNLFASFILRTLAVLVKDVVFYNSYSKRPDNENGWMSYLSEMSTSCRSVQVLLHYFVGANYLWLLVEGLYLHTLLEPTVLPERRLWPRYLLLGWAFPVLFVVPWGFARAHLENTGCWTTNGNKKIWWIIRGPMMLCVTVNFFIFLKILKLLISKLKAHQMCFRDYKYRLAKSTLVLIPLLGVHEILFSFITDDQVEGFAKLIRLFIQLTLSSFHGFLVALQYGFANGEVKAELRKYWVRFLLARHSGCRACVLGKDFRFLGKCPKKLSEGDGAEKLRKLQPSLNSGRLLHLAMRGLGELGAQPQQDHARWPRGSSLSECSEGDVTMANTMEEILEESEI
Briefly: cAMP accumulation assay, functional agonism of human GLP2 receptor. Conditions: HEK cells infected with human GLP2 receptor BacMam virus, HTRF cAMP; for Emax: HEK293, read-out: Human GLP-2R agonist cAMP Emax; for EC50: read-out: Human GLP-2R agonist cAMP pEC50 (converted). The format is cell-based. In outline:
as §1

The next series deals with T3, mouse GLP2 receptor (Mus musculus, UniProt Q5IXF8).
T3 construct: expressed in transfected cells; host or cells: HEK cells, transient transfection with GeneJuice
T3 sequence (Q5IXF8 1-512): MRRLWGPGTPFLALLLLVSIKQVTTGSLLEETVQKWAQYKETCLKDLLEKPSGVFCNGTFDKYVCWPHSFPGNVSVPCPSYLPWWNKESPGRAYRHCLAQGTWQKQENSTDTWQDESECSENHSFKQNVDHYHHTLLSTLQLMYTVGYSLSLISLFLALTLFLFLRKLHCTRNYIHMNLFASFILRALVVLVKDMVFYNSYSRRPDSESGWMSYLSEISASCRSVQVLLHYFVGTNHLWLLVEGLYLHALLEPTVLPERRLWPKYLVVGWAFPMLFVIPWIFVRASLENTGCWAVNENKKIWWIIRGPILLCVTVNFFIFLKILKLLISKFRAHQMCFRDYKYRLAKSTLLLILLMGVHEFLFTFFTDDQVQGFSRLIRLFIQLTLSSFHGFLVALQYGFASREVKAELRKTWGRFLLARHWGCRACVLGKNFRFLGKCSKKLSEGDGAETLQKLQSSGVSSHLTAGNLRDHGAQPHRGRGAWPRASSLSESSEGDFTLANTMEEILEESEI
Briefly: cAMP accumulation assay, functional agonism of mouse GLP2 receptor. Type of series: cell-based. Conditions: HEK cells transiently transfected with mouse GLP2 receptor, HTRF cAMP; for Emax: HEK293, read-out: Mouse GLP-2R agonist cAMP Emax; for EC50: read-out: Mouse GLP-2R agonist cAMP pEC50 (converted). In outline: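 pEC50 values come from four-parameter fits of HTRF cAMP signal, read after lysis and 1 h RT incubation. Compounds were incubated 45 min at 37 °C with previously frozen, transiently transfected HEK cells (8000/well) in HBSS containing 0.5 mM IBMX.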

T1 sequence (P43220 24-463): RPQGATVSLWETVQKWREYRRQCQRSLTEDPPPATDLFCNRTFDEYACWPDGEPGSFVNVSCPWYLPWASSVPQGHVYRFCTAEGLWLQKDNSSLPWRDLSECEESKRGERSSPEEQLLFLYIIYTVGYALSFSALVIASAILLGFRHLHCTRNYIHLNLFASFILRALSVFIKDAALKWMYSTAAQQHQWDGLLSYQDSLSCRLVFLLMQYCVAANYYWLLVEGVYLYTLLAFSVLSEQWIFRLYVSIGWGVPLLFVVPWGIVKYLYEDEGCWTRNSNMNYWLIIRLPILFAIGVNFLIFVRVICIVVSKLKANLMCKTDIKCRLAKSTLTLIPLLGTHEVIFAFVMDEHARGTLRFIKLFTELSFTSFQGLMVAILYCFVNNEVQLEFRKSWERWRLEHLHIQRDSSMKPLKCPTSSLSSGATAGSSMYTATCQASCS

Usually amount remaining stands for the share of the starting amount still present when the sample was taken. The low end stands for more turnover, the high end for less turnover. Broadly, the Emax is the size of the effect at its maximum, as opposed to the concentration needed. In series [1], `CCCC[C@H](NC(=O)[C@H](CCC(=O)O)NC(=O)[C@@H]1CC(=O)NCCCC[C@H](NC(=O)[C@H](CCC(N)=O)NC(=O)C(C)(C)NC(=O)[C@@H](N)Cc2c[nH]cn2)C(=O)N[C@@H](CO)C(=O)N[C@@H](Cc2ccccc2)C(=O)N[C@@H](CO)C(=O)N1)C(=O)N[C@H](Cc1ccccc1)C(=O)N[C@H](C(=O)N[C@@](C)(CC(C)C)C(=O)N[C@@H](CC(C)C)C(=O)N[C@@H](CC(=O)O)C(=O)N[C@H]1CCC(=O)NCCCC[C@@H](C(=O)N[C@@H](CC(=O)O)C(=O)N[C@@H](Cc2ccccc2)C(=O)N[C@H](C(=O)N[C@H]2CCC(=O)NCCCC[C@@H](C(=O)N[C@H](C(=O)N[C@@H](CCCCN)C(N)=O)[C@@H](C)O)NC(=O)[C@H]([C@@H](C)CC)NC(=O)[C@H](CC(C)C)NC(=O)[C@H](Cc3c[nH]c4ccccc34)NC2=O)[C@@H](C)CC)NC(=O)[C@H](C)NC(=O)[C@H](C)NC(=O)[C@H](CCCCN)NC1=O)[C@@H](C)O` [Example 27] (H-H[Aib]QKSFSDE[Nle][dF]T[αMeL]LDEKAAKDFIEWLIKTK-NH2; lactam 4-8, 16-20, 24-28; N-terminus and C-terminus assumed) gave a share remaining at 0.5 h of 11%. At human GLP1 receptor, the Emax came out at 97.1% and the EC50 is 0.251 nM. On human GLP2 receptor, the Emax is 99.3% and the EC50 is 0.0631 nM.

`CCCC[C@H](NC(=O)[C@H](CCC(=O)O)NC(=O)[C@@H]1CC(=O)NCCCC[C@H](NC(=O)[C@H](CC(=O)O)NC(=O)C(C)(C)NC(=O)[C@@H](N)Cc2c[nH]cn2)C(=O)N[C@@H](CO)C(=O)N[C@@H](Cc2ccccc2)C(=O)N[C@@H](CO)C(=O)N1)C(=O)N[C@H](Cc1ccccc1)C(=O)N[C@H](C(=O)N[C@@](C)(CC(C)C)C(=O)N[C@@H](CC(C)C)C(=O)N[C@@H](CC(=O)O)C(=O)N[C@H]1CCC(=O)NCCCC[C@@H](C(=O)N[C@@H](CC(=O)O)C(=O)N[C@@H](Cc2ccccc2)C(=O)N[C@H](C(=O)N[C@H]2CCC(=O)NCCCC[C@@H](C(=O)N[C@H](C(=O)N3CCC[C@H]3C(N)=O)[C@@H](C)O)NC(=O)[C@H]([C@@H](C)CC)NC(=O)[C@H](CC(C)C)NC(=O)[C@H](Cc3c[nH]c4ccccc34)NC2=O)[C@@H](C)CC)NC(=O)[C@H](C)NC(=O)[C@H](C)NC(=O)[C@H](CCCCN)NC1=O)[C@@H](C)O` [Example 29] (H-H[Aib]DKSFSDE[Nle][dF]T[αMeL]LDEKAAKDFIEWLIKTP-NH2; lactam 4-8, 16-20, 24-28 (inferred); C-terminus assumed) gave an amount remaining at 0.5 h in series [1] of 41.3%. Besides, the values for the maximum response (Emax) on human GLP1 receptor, on human GLP2 receptor and on mouse GLP2 receptor were 96.2%, 103% and 100%, respectively. The EC50 on human GLP1 receptor was 0.0501 nM; at human GLP2 receptor it was 0.0316 nM; at mouse GLP2 receptor, 5.01 nM.

As for `CCCC[C@H](NC(=O)[C@H](CCC(=O)O)NC(=O)[C@@H]1CC(=O)NCCCC[C@H](NC(=O)[C@H](CC(=O)O)NC(=O)C(C)(C)NC(=O)[C@@H](N)Cc2c[nH]cn2)C(=O)N[C@@H](CO)C(=O)N[C@@](C)(Cc2ccccc2F)C(=O)N[C@@H](CO)C(=O)N1)C(=O)N[C@H](Cc1ccccc1)C(=O)N[C@H](C(=O)N[C@@](C)(CC(C)C)C(=O)N[C@@H](CC(C)C)C(=O)N[C@@H](CC(=O)O)C(=O)N[C@H]1CCC(=O)NCCCC[C@@H](C(=O)N[C@@H](CC(=O)O)C(=O)N[C@@H](Cc2ccccc2)C(=O)N[C@H](C(=O)N[C@H]2CCC(=O)NCCCC[C@@H](C(=O)N[C@H](C(=O)N[C@@H](CCCCN)C(N)=O)[C@@H](C)O)NC(=O)[C@H]([C@@H](C)CC)NC(=O)[C@H](CC(C)C)NC(=O)[C@H](Cc3c[nH]c4ccccc34)NC2=O)[C@@H](C)CC)NC(=O)[C@H](C)NC(=O)[C@H](C)NC(=O)[C@H](CCCCN)NC1=O)[C@@H](C)O` [Example 31] (H-H[Aib]DKS[αMePhe(2-F)]SDE[Nle][dF]T[αMeL]LDEKAAKDFIEWLIKTK-NH2; lactam 4-8, 16-20, 24-28), the amount remaining at 0.5 h in series [1] amounted to 24.8%. Also, the Emax on human GLP1 receptor was found to be 98.3%; on human GLP2 receptor, 103%; at mouse GLP2 receptor, 102%. Moreover, the EC50 at human GLP1 receptor is 0.0158 nM; at human GLP2 receptor, 0.0398 nM; at mouse GLP2 receptor, 0.158 nM.

For `CCCC[C@H](NC(=O)[C@H](CCC(=O)O)NC(=O)[C@@H]1CC(=O)NCCCC[C@H](NC(=O)[C@H](CC(=O)O)NC(=O)C(C)(C)NC(=O)[C@@H](N)Cc2c[nH]cn2)C(=O)N[C@@H](CO)C(=O)N[C@@H](Cc2ccccc2)C(=O)N[C@@H](CO)C(=O)N1)C(=O)N[C@](C)(Cc1ccccc1)C(=O)N[C@H](C(=O)N[C@@](C)(CC(C)C)C(=O)N[C@@H](CC(C)C)C(=O)N[C@@H](CC(=O)O)C(=O)N[C@H]1CCC(=O)NCCCC[C@@H](C(=O)N[C@@H](CC(=O)O)C(=O)N[C@@H](Cc2ccccc2)C(=O)N[C@H](C(=O)N[C@H]2CCC(=O)NCCCC[C@@H](C(=O)N[C@H](C(=O)N[C@@H](CCCCN)C(N)=O)[C@@H](C)O)NC(=O)[C@H]([C@@H](C)CC)NC(=O)[C@H](CC(C)C)NC(=O)[C@H](Cc3c[nH]c4ccccc34)NC2=O)[C@@H](C)CC)NC(=O)[C@H](C)NC(=O)[C@H](C)NC(=O)[C@H](CCCCN)NC1=O)[C@@H](C)O` [Example 36] (H-H[Aib]DKSFSDE[Nle][d(αMeF)]T[αMeL]LDEKAAKDFIEWLIKTK-NH2; lactam 4-8, 16-20, 24-28; N-terminus and C-terminus assumed), in series [1], the fraction remaining at 0.5 h was determined as 23.3%. At human GLP1 receptor, the maximal effect (Emax) was 97.1% and the EC50 is 0.0316 nM. For the same compound, on human GLP2 receptor, the maximal effect (Emax) is 104% and the EC50 was 0.0316 nM.

In series [1], `CCCC[C@H](NC(=O)[C@H](CCC(=O)O)NC(=O)[C@@H]1CC(=O)NCCCC[C@H](NC(=O)[C@H](Cc2nn[nH]n2)NC(=O)C(C)(C)C(=O)NCCc2c[nH]cn2)C(=O)N[C@@H](CO)C(=O)N[C@@](C)(Cc2ccccc2F)C(=O)N[C@@H](CO)C(=O)N1)C(=O)N[C@H](Cc1ccccc1)C(=O)N[C@H](C(=O)N[C@@](C)(CC(C)C)C(=O)N[C@@H](CC(C)C)C(=O)N[C@@H](CC(=O)O)C(=O)N[C@H]1CCC(=O)NCCCC[C@@H](C(=O)N[C@@H](CC(=O)O)C(=O)N[C@@H](Cc2ccccc2)C(=O)N[C@H](C(=O)N[C@H]2CCC(=O)NCCCC[C@@H](C(=O)N[C@H]3CCC(=O)NCCCC[C@@H](C(N)=O)NC(=O)[C@H]([C@@H](C)O)NC(=O)[C@H]([C@@H](C)CC)NC(=O)[C@H](CCCCN)NC3=O)NC(=O)[C@H]([C@@H](C)CC)NC(=O)[C@H](CC(C)C)NC(=O)[C@H](Cc3c[nH]c4ccccc34)NC2=O)[C@@H](C)CC)NC(=O)[C@H](C)NC(=O)[C@H](C)NC(=O)[C@H](CCCCN)NC1=O)[C@@H](C)O` [Example 71] ({Malonyl(2,2-Me2,histaminyl)}-[Ala(1H-tetrazol-5-yl)]KS[αMePhe(2-F)]SDE[Nle][dF]T[αMeL]LDEKAAKDFIEWLIKEKITK-NH2; lactam 2-6, 14-18, 22-26, 27-31 (inferred); C-terminus assumed) displayed an amount remaining at 0.5 h of 73.8%. The Emax at human GLP1 receptor came to 98.2%; at human GLP2 receptor, 103%; on mouse GLP2 receptor, 89.7%. In addition, the EC50 was 0.0251 nM at human GLP1 receptor, 0.0251 nM at human GLP2 receptor and 2 nM at mouse GLP2 receptor.
